Experimental data: article PMC4621027, “Hydroxyethylamine Based Phthalimides as New Class of Plasmepsin Hits: Design, Synthesis and Antimalarial Evaluation” (PLoS ONE, 2015)
Where two headings read alike, the source gives them in different places.

Assays:
P. falciparum 3D7 = assay: SYBR green I-based fluorescence parasite growth assay, CQ sensitive strain; type: cell-based, Plasmodium falciparum; conditions: read-out: IC50 values ± SE, growth of P. falciparum (3D7)
Method: (§1) For compound screening, SYBR green I-based fluorescence assay was setup as described in literature. Sorbitol synchronized parasites were incubated under normal culture conditions at 2% hematocrit and 1% parasitemia in the absence or presence of increasing concentrations of the compounds. Chloroquine (CQ) was used as positive control, while 0.4% DMSO was used as the negative control.
(§2) We have studied the antimalarial effect of all the listed molecules in […] culture conditions in order to identify a putative lead structure for pharmacological applications.

[1] = test system: CQ resistant strain (7GB) of P. falciparum; assay: Antiplasmodial activity against CQ resistant strain; type: cell-based; conditions: Plasmodium falciparum
Method: as §1, §2

[2] = MTT-colorimetric cytotoxicity assay; type: cell-based; conditions: human, MCF-7 cells, read-out: IC50, cytotoxicity on MCF7 cell line
Method: (§3) Phthalimides were serially diluted in DMSO in a final concentration of 100, 25 and 6.25 μg mL^-1 and evaluated for their % cytotoxicity by using MTT-colorimetric assay on MCF-7 cell line. Cell lines were maintained in RPMI-1640 (Hi-Media, Mumbai) medium supplemented with heat inactivated FCS (10% v/v) and 100 U/mL of streptomycin and were cultured in a humidified 5% CO2 atmosphere at 37°C. 100 μL (~2×10^5) of cells were seeded into wells (per well) on a 96-well plate (Nunc, Maxi Sorp) and incubated for 16 h for adherence. After 16 h, media was aspirated from the wells and the cells were washed with RPMI-1640 without FCS. 75 μL of each compound and control was added to separate wells containing cell lines and incubated at 37°C in humidified 5% CO2 atmosphere for 4 h. After 4 h, media containing the compounds was replaced with 200 μL of normal RPMI-1640 and cells were further incubated for 48 h under same conditions. After 48 h media was replaced by 200 μL of MTT (3-(4, 5-dimethylthiazol-2-yl)-2, 5-diphenyltetrazolium bromide, 0.5 mg/mL of RPMI-1640) and further incubated for 2 h. The formazan crystals were formed and suspended in 100 μL iso-propanol containing 0.06 M HCl and 0.5% SDS. Aliquots were drawn from each well and colour intensity was measured spectrophotometrically in an ELISA plate reader (Biotek, ELx800) at 540 nm. Untreated cells were taken as control with 100% viability and cells without addition of MTT were used as blank. The relative cell viability (%) compared to control cells was calculated by [abs] sample/ [abs] control × 100.

human erythrocytes = assay: In vitro hemolytic activity; type: cell-based; conditions: 3.125 to 100 μg/mL, 37°C, 1 h
Method: In vitro hemolytic activity of all synthesized compounds was performed as per reported protocol with slight modifications. In brief, human erythrocytes were collected from Rotary Blood Bank (New Delhi, India) and suspended in phosphate buffer saline (PBS). The suspension (2% hemotocrit) was incubated with different concentrations (3.125 to 100 μg/mL) of the entire compound series at 37°C for 1 h. After 1 h, erythrocytes were pelleted at 3000 g for 10 min (Remi, R-8C/BL) at 4°C. The supernatant was collected and OD450 was determined spectrophotometrically (Biotek, ELx800 UV spectrophotometer) using PBS as a negative control and Triton X-100 for completely lysing the cells. The percent hemolysis was calculated using the following formula: Percent hemolysis = […]. The percent hemolysis was plotted against concentration of compounds for determining the dose cytotoxic to erythrocytes.

MCF-7 cell line = assay: MTT-colorimetric cytotoxicity assay; type: cell-based; conditions: 100, 25 and 6.25 μg mL^-1
Method: as §3

plasmepsin 2 = molecular target: T1, plasmepsin 2 (Plasmodium falciparum, UniProt P46925); assay: Inhibition of plasmepsin 2, chromogenic substrate cleavage assay; type: biochemical; conditions: pH 4.5; fit to competitive inhibition scheme
T1 construct: preincubated at the assay pH for 3 minutes to allow conversion from the proenzyme to the mature enzyme form; made in house
Method: (§4) Synthetic compounds were dissolved in DMSO to make stock solutions at concentrations around 100 μM. Dilutions from these stocks were made to obtain solutions to use for studying inhibition of the plasmepsins 2 and 4 from P. falciparum. Assays of enzymatic activity were typically done using 50 micromolar substrate and 50 nanomolar enzyme at pH 4.5. The protein samples were preincubated at the assay pH for 3 minutes to allow conversion from the proenzyme to the mature enzyme form, then immediately mixed with inhibitor solutions and incubated for a further 5 minutes to permit the enzyme-inhibitor complex to form. Following this, the samples were mixed with samples of the substrate to yield a 50 μM substrate concentration in the final assay solution and immediately placed in a recording spectrophotometer to follow the reaction. The cleavage of the chromogenic substrate yields a shift in absorbance that can be quantified by the decrease in absorbance at 300 nm. Compounds were mixed with the enzymes at concentrations ranging from 10 to 50 μM range and the effect on enzyme activity studied in duplicate assays.
(§5) A second inhibitor concentration was chosen that would yield approximately 30–35% inhibition and a third inhibitor concentration was chosen to yield approximately 65–70% inhibition. The three resulting curves of initial velocity versus substrate concentration were fit simultaneously to the competitive inhibition scheme; this yields values of Vmax, Km, and Ki.
(§6) Plasmepsins, a family of aspartic proteases of malaria parasite, are known to participate in a wide variety of cellular processes essential for parasite survival. […] Similarly, plasmepsin 4 from P. falciparum can be prepared and activated. Catalytic activity of the plasmepsins can be studied by following the change in absorbance at 300 nm as cleavage occur between a Phe and a nitroPhe in the synthetic substrate, Lys-Pro-Ile-Glu-Phe-NO2Phe-Arg-Leu. The compounds listed in Tables 1, 2 and 3 were assayed for inhibition by preincubating with differnt concentrations of the compound with equal aliquots of either plasmepsin 2 or 4 followed by mixing with the assay substrate.

plasmepsin 4 = molecular target: T2, plasmepsin 4 (Plasmodium falciparum, UniProt Q8IM16); assay: Inhibition of plasmepsin 4, chromogenic substrate cleavage assay; type: biochemical; conditions: pH 4.5; fit to competitive inhibition scheme
T2 construct: preincubated at the assay pH for 3 minutes to allow conversion from the proenzyme to the mature enzyme form; made in house
Method: as §4, §5, §6

[3] = Plasmodium falciparum, CQ sensitive strain 3D7, 48 h incubation
[4] = values in brackets, 48 h incubation, read-out: IC50 values ± SE, CQ resistant strain (7GB) (converted)

T2 sequence (Q8IM16 122-449): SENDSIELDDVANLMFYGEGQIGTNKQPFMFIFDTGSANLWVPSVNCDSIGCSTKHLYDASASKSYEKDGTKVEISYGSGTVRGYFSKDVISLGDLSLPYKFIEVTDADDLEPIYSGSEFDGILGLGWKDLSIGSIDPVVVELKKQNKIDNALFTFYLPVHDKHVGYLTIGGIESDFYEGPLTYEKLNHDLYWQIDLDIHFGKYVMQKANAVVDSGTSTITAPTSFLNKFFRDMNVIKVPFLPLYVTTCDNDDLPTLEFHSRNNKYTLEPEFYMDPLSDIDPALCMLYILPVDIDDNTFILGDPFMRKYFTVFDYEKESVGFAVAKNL
T1 sequence (P46925 125-453): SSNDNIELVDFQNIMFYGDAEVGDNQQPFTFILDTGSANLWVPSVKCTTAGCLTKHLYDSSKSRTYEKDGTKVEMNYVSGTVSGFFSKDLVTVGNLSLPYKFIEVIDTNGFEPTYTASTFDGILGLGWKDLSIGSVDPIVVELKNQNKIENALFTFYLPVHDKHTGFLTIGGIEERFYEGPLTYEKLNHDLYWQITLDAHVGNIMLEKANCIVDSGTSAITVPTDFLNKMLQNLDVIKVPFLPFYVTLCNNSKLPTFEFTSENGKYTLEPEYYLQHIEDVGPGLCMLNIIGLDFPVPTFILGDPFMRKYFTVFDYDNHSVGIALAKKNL

| SMILES | IC50 (P. falciparum 3D7; [3]) [µM] | melting point [°C] | also measured |
| --- | --- | --- | --- |
| C[C@@H]1CC[C@H]2[C@@H](C)C(=O)O[C@@H]3O[C@@]4(C)CC[C@@H]1[C@]32OO4 [ART, reference compound] |  |  | IC50 (P. falciparum 3D7; CQ sensitive strain 3D7, 48 h incubation): 0.021 µM |
| CCN(CC)CCCC(C)Nc1ccnc2cc(Cl)ccc12 (centres unmarked) [CQ, Chloroquine, reference compound] |  |  | IC50 (P. falciparum 3D7; Plasmodium falciparum, 3D7, 48 h): 0.059 µM; IC50 ([1]; 48 h, read-out: IC50 values ± SE, CQ resistant strain (7GB)): 1.32 µM |
| CN1CCN(C[C@H](O)[C@@H](Cc2ccccc2)NC(=O)OC(C)(C)C)CC1 [Compound 5a] | 5.88 ± 0.23 |  | IC50 at 4 h [2]: > 8 µM; hemolysis of human erythrocytes (in words) (human erythrocytes): least hemotoxic |
| CCN1CCN(C[C@H](O)[C@@H](Cc2ccccc2)NC(=O)OC(C)(C)C)CC1 [Compound 5b] | 5.4 ± 0.06 | 89 to 91 | hemolysis of human erythrocytes (in words) (human erythrocytes): highest hemotoxicity |
| CC(C)(C)OC(=O)N[C@H](Cc1ccccc1)[C@@H](O)CN1CCN(Cc2ccc(Br)cc2)CC1 [Compound 5d] | 4.9 ± 0.01 | 111 to 114 |  |
| CC[C@@H](C)[C@@H](C(=O)N[C@H](Cc1ccccc1)[C@@H](O)CN1CCN(C)CC1)N1C(=O)c2ccccc2C1=O [Compound 6d] | 6.33 ± 0.13 | 104 to 106 | hemolysis of human erythrocytes (in words) (human erythrocytes): lower hemolysis |
| CC(C)C[C@@H](C(=O)N[C@H](Cc1ccccc1)[C@@H](O)CN1CCN(Cc2ccc(F)cc2)CC1)N1C(=O)c2ccccc2C1=O [Compound 6i] | 5.27 ± 0.06 | 134 to 136 |  |
| CC(C)C[C@@H](C(=O)N[C@H](Cc1ccccc1)[C@@H](O)CN1CCN(Cc2ccc(Br)cc2)CC1)N1C(=O)c2ccccc2C1=O [Compound 6m] | 6.96 ± 0.1 | 143 to 145 | IC50 at 4 h [2]: > 8 µM |
| O=C(N[C@H](Cc1ccccc1)[C@@H](O)CN1CCC(N2CCCCC2)CC1)[C@H](Cc1ccccc1)N1C(=O)c2ccccc2C1=O [Compound 6q] | 8.54 ± 0.04 | 134 to 136 | IC50 at 4 h [2]: > 8 µM |
| CC(C)C[C@@H](C(=O)N[C@H](Cc1ccccc1)[C@@H](O)CN1CCN(C[C@H](O)[C@@H](Cc2ccccc2)NC(=O)[C@H](CC(C)C)N2C(=O)c3ccccc3C2=O)CC1)N1C(=O)c2ccccc2C1=O [Compound 6r] | 5.12 ± 0.43 | 141 to 143 | Ki (plasmepsin 2): 1.1 ± 0.1 µM; Ki (plasmepsin 4): > 50 µM; hemolysis of human erythrocytes (in words) (human erythrocytes): least hemotoxic |
| CC(C)[C@@H](C(=O)N[C@H](Cc1ccccc1)[C@@H](O)CN1CCN(C[C@H](O)[C@@H](Cc2ccccc2)NC(=O)[C@H](C(C)C)N2C(=O)c3ccccc3C2=O)CC1)N1C(=O)c2ccccc2C1=O [Compound 6t] | 7.28 ± 0.43 | 123 to 125 | Ki (plasmepsin 2): > 20 µM; Ki (plasmepsin 4): 3.3 ± 0.3 µM |

Now from value to molecule, other results behind:

| IC50 (P. falciparum 3D7; [3]) [µM] | melting point [°C] | SMILES | also measured |
| --- | --- | --- | --- |
| 2.56 ± 0.06 | 108 to 110 | CC(C)(C)OC(=O)N[C@H](Cc1ccccc1)[C@@H](O)CN1CCN(Cc2ccc(F)cc2)CC1 [Compound 5c] | IC50 at 4 h [2]: > 8 µM |
| 3.11 ± 0.11 |  | CC(C)(C)OC(=O)N[C@H](Cc1ccccc1)[C@@H](O)CN1CCN(C[C@H](O)[C@@H](Cc2ccccc2)NC(=O)OC(C)(C)C)CC1 [Compound 5f] | cytotoxic effect on MCF7 cell line (in words) (MCF-7 cell line): maximal toxicity |
| 4.61 ± 0.06 | 141 to 143 | CC(C)C[C@@H](C(=O)N[C@H](Cc1ccccc1)[C@@H](O)CN1CCN(C)CC1)N1C(=O)c2ccccc2C1=O [Compound 6a] |  |
| 3.41 ± 0.03 | 101 to 103 | CN1CCN(C[C@H](O)[C@@H](Cc2ccccc2)NC(=O)[C@H](Cc2ccccc2)N2C(=O)c3ccccc3C2=O)CC1 [Compound 6b] |  |
| 4.58 ± 0.04 | 91 to 93 | CC(C)[C@@H](C(=O)N[C@H](Cc1ccccc1)[C@@H](O)CN1CCN(C)CC1)N1C(=O)c2ccccc2C1=O [Compound 6c] |  |
| 2.13 ± 0.02 | 117 to 119 | CCN1CCN(C[C@H](O)[C@@H](Cc2ccccc2)NC(=O)[C@H](CC(C)C)N2C(=O)c3ccccc3C2=O)CC1 [Compound 6e] |  |
| 2.96 ± 0.43 | 108 to 111 | CCN1CCN(C[C@H](O)[C@@H](Cc2ccccc2)NC(=O)[C@H](Cc2ccccc2)N2C(=O)c3ccccc3C2=O)CC1 [Compound 6f] |  |
| 3.8 ± 0.03 | 108 to 111 | CCN1CCN(C[C@H](O)[C@@H](Cc2ccccc2)NC(=O)[C@H](C(C)C)N2C(=O)c3ccccc3C2=O)CC1 [Compound 6g] |  |
| 1.33 ± 0.04 | 121 to 123 | O=C(N[C@H](Cc1ccccc1)[C@@H](O)CN1CCN(Cc2ccc(F)cc2)CC1)[C@H](Cc1ccccc1)N1C(=O)c2ccccc2C1=O [Compound 6j] | cytotoxic effect on MCF7 cell line (in words) (MCF-7 cell line): low cytotoxic effect; IC50 [1, 4]: 3.6 µM; hemolysis of human erythrocytes (in words) (human erythrocytes): lower hemolysis |
| 4.59 ± 0.07 | 137 to 139 | CC(C)[C@@H](C(=O)N[C@H](Cc1ccccc1)[C@@H](O)CN1CCN(Cc2ccc(F)cc2)CC1)N1C(=O)c2ccccc2C1=O [Compound 6k] | IC50 at 4 h [2]: > 8 µM |
| 3.14 ± 0.02 | 131 to 133 | O=C(N[C@H](Cc1ccccc1)[C@@H](O)CN1CCN(Cc2ccc(Br)cc2)CC1)[C@H](Cc1ccccc1)N1C(=O)c2ccccc2C1=O [Compound 6n] |  |
| 1.25 ± 0.08 |  | CC(C)[C@@H](C(=O)N[C@H](Cc1ccccc1)[C@@H](O)CN1CCN(Cc2ccc(Br)cc2)CC1)N1C(=O)c2ccccc2C1=O [Compound 6o] | cytotoxic effect on MCF7 cell line (in words) (MCF-7 cell line): low cytotoxic effect; IC50 [1, 4]: 3.01 µM |
| 3.24 ± 0.06 | 131 to 134 | CCC(C)[C@@H](C(=O)N[C@H](Cc1ccccc1)[C@@H](O)CN1CCN(C[C@H](O)[C@@H](Cc2ccccc2)NC(=O)[C@H](C(C)CC)N2C(=O)c3ccccc3C2=O)CC1)N1C(=O)c2ccccc2C1=O (some centres unmarked) [Compound 6u] | Ki (plasmepsin 2): 0.99 ± 0.1 µM; Ki (plasmepsin 4): > 50 µM |
